Legend:
PLPPR2_C207 = molecular target: T1, PLPPR2_C207 (Homo sapiens, UniProt Q96GM1); assay: IA-DTB cysteine engagement; format: binding; settings: 22Rv1 cells, 20 μM probe, 1 h, relative to DMSO
T1 construct: endogenous in cells; host or cells: 22Rv1
T1 sequence (Q96GM1 1-343): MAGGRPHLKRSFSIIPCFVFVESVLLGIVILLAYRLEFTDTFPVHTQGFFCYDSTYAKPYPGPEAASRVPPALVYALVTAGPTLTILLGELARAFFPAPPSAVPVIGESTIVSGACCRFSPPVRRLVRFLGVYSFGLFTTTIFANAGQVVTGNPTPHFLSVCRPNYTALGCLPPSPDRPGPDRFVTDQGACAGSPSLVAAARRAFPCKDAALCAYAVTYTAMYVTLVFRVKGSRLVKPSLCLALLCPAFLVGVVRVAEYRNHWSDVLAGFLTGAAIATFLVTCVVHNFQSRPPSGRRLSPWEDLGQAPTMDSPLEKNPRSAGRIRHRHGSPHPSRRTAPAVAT
Method in brief: (§1)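 Probe-exposed cells were lysed, IA-DTB-labeled, trypsinized and streptavidin-enriched. Multiplexed TMT quantitation gave engagement ratios versus DMSO, with non-tryptic peptides excluded and intensities normalized to median summed signal.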

VWA5B2_C1040 = molecular target: T2, VWA5B2_C1040 (Homo sapiens, UniProt Q8N398); assay: IA-DTB cysteine engagement; format: binding; settings: 22Rv1 cells, 20 μM probe, 1 h, relative to DMSO
T2 construct: endogenous in cells; host or cells: 22Rv1
T2 sequence (Q8N398 1-1242): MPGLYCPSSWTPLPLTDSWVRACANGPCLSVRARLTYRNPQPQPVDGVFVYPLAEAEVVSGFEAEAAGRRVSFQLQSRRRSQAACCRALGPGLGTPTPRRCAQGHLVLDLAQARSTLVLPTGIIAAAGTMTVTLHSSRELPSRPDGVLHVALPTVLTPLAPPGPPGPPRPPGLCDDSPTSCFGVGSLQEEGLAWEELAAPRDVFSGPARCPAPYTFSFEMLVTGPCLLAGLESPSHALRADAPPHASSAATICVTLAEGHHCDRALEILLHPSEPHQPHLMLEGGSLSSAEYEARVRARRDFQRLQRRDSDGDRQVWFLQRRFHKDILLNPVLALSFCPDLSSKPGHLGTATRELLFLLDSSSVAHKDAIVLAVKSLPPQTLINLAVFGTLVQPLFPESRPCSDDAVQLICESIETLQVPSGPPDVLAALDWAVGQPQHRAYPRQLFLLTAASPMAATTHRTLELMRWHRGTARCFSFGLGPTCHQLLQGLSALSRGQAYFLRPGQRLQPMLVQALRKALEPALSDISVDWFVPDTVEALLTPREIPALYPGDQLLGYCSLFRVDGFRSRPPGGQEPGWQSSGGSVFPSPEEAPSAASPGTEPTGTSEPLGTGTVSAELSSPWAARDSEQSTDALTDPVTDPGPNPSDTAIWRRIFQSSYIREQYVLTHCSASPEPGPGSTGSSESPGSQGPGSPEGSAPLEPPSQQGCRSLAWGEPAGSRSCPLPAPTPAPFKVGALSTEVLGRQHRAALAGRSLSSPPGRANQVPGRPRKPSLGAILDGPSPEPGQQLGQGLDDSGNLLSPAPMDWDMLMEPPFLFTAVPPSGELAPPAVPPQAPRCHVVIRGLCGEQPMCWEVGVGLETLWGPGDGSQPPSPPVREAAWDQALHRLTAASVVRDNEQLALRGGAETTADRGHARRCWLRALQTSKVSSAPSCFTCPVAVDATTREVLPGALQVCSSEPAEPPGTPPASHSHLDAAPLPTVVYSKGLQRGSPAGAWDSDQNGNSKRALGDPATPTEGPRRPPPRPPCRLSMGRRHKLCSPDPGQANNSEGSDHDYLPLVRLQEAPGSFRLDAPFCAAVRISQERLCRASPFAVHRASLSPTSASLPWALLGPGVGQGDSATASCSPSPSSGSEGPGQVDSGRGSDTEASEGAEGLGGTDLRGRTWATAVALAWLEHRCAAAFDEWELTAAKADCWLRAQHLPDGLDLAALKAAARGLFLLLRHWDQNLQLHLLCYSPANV
Method in brief: as §1

Structure (SMILES)	% engagement PLPPR2_C207 (PLPPR2_C207)	% engagement VWA5B2_C1040 (VWA5B2_C1040)
C=CC(=O)N1C[C@H](c2ccc(Br)cc2)[C@H]1C(=O)Nc1cccc2cccnc12 [MY-3A, (2S,3S)-1-acryloyl-3-(4-bromophenyl)-N-(quinolin-8-yl)azetidine-2-carboxamide]	46.5%	51.5%
C=CC(=O)N1C[C@H](c2ccc(Br)cc2)[C@@H]1C(=O)Nc1cccc2cccnc12 [MY-1B, (2R,3S)-1-acryloyl-3-(4-bromophenyl)-N-(quinolin-8-yl)azetidine-2-carboxamide]	31%	76.25%
C=CC(=O)N1C[C@H](c2ccc(Br)cc2)[C@H]1C(=O)Nc1cccc2cccnc12 [MY-3B, (2S,3S)-1-acryloyl-3-(4-bromophenyl)-N-(quinolin-8-yl)azetidine-2-carboxamide]	71%	74.25%
C=CC(=O)N1C[C@@H](c2ccc(Br)cc2)[C@H]1C(=O)Nc1cccc2cccnc12 [MY-1A, (2S,3R)-1-acryloyl-3-(4-bromophenyl)-N-(quinolin-8-yl)azetidine-2-carboxamide]	30.5%	76.5%
